How the values were obtained:
Format in all cases: in vivo
[1] = tested on: sugar beet (Beta vulgaris); experiment: Test B pre-/postemergence; parameters: key: 0 is no effect; 10 is complete control
Method in brief: (§1)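 Response scores run from 0, meaning no effect, to 10, meaning complete control, assigned by eye relative to controls twelve to sixteen days after spraying. Treatment was both preemergence on planted seed and postemergence on plants at the 1- to 4-leaf stage.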

[2] = tested on: purple nutsedge (Cyperus rotundus); experiment: Test B pre-/postemergence; parameters: key: 0 is no effect; 10 is complete control
Method in brief: as §1

soybean (Glycine max) = experiment: Test B pre-/postemergence; parameters: key: 0 is no effect; 10 is complete control
Method in brief: as §1

[3] = tested on: wheat (Triticum aestivum); experiment: Test B pre-/postemergence; parameters: key: 0 is no effect; 10 is complete control
Method in brief: as §1

wild oat (Avena fatua) = experiment: Test B pre-/postemergence; parameters: key: 0 is no effect; 10 is complete control
Method in brief: as §1

corn (Zea mays) = experiment: Test B pre-/postemergence; parameters: key: 0 is no effect; 10 is complete control
Method in brief: as §1

rape (Brassica napus) = experiment: Test B pre-/postemergence; parameters: key: 0 is no effect; 10 is complete control
Method in brief: as §1

[4] = tested on: giant foxtail (Setaria faberii); experiment: Test B pre-/postemergence; parameters: key: 0 is no effect; 10 is complete control
Method in brief: as §1

[5] = tested on: velvetleaf (Abutilon theophrasti); experiment: Test B pre-/postemergence; parameters: key: 0 is no effect; 10 is complete control
Method in brief: as §1

[6] = tested on: bedstraw (Galium aparine); experiment: Test B pre-/postemergence; parameters: key: 0 is no effect; 10 is complete control
Method in brief: as §1

[7] = tested on: crabgrass (Digitaria sanguinalis); experiment: Test B pre-/postemergence; parameters: key: 0 is no effect; 10 is complete control
Method in brief: as §1

[8] = tested on: duck salad (Heteranthera limosa); experiment: Test B flood test
Method in brief: (§2)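 Each value is a visual injury score relative to controls, with 10 meaning complete control and 0 no effect. Evaluation took place twelve to sixteen days after the 2-leaf-stage plants were treated and kept in the greenhouse.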

[9] = tested on: bamyardgrass (Echinochloa crus-galli); experiment: Test B flood test
Method in brief: as §2

rice (Oryza sativa) = experiment: Test B flood test
Method in brief: as §2

[10] = tested on: smallflower flatsedge (Cyperus difformis); experiment: Test B flood test
Method in brief: as §2

[11] = Rate 62 g/ha, Postemergence (flood test)
[12] = Rate 125 g/ha, Postemergence, flood test
[13] = Rate 250 g/ha, Postemergence (flood test species)
[14] = Rate 250 g/ha, Postemergence (so in the source)
[15] = Rate 125 g/ha, Postemergence section (flood test species)

CCc1cnc(-c2ccc(C(F)(F)F)cc2)nc1Cc1cccc(C(F)(F)F)c1 [Compound 22]
Plant response rating, Sugarbeets ([1]; Rate 62 g/ha, Postemergence): 10 | Sugarbeets plant response rating ([1]; Rate 62 g/ha, Preemergence): 9 | Plant response rating, Sugarbeets ([1]; Rate 125 g/ha, Postemergence): 10 | Sugarbeets plant response rating ([1]; Rate 125 g/ha, Preemergence): 9 | Plant response rating, Sugarbeets ([1]; Rate 250 g/ha, Postemergence): 10 | Plant response rating, Sugarbeets ([1]; Rate 250 g/ha, Preemergence): 10 | Plant response rating, Nutsedge ([2]; Rate 62 g/ha, Postemergence): 0 | Nutsedge plant response rating ([2]; Rate 62 g/ha, Preemergence): 0 | Plant response rating, Nutsedge ([2]; Rate 125 g/ha, Postemergence): 0 | Nutsedge plant response rating ([2]; Rate 125 g/ha, Preemergence): 1 | Plant response rating, Soybean (soybean (Glycine max); Rate 62 g/ha, Postemergence): 6 | Soybean plant response rating (soybean (Glycine max); Rate 62 g/ha, Preemergence): 1 | Plant response rating, Soybean (soybean (Glycine max); Rate 125 g/ha, Postemergence): 7 | Soybean plant response rating (soybean (Glycine max); Rate 125 g/ha, Preemergence): 1 | Plant response rating, Soybean (soybean (Glycine max); Rate 250 g/ha, Postemergence): 8 | Plant response rating, Soybean (soybean (Glycine max); Rate 250 g/ha, Preemergence): 2 | Plant response rating, Wheat ([3]; Rate 62 g/ha, Postemergence): 4 | Wheat plant response rating ([3]; Rate 62 g/ha, Preemergence): 2 | Plant response rating, Wheat ([3]; Rate 125 g/ha, Postemergence): 4 | Wheat plant response rating ([3]; Rate 125 g/ha, Preemergence): 2 | Plant response rating, Wheat ([3]; Rate 250 g/ha, Postemergence): 6 | Plant response rating, Wheat ([3]; Rate 250 g/ha, Preemergence): 4 | Plant response rating, Wild oats (wild oat (Avena fatua); Rate 62 g/ha, Postemergence): 5 | Wild oats plant response rating (wild oat (Avena fatua); Rate 62 g/ha, Preemergence): 7 | Plant response rating, Wild oats (wild oat (Avena fatua); Rate 125 g/ha, Postemergence): 6 | Wild oats plant response rating (wild oat (Avena fatua); Rate 125 g/ha, Preemergence): 8 | Plant response rating, Wild oats (wild oat (Avena fatua); Rate 250 g/ha, Postemergence): 8 | Plant response rating, Wild oats (wild oat (Avena fatua); Rate 250 g/ha, Preemergence): 9 | Plant response rating, Corn (corn (Zea mays); Rate 62 g/ha, Postemergence): 3 | Corn plant response rating (corn (Zea mays); Rate 62 g/ha, Preemergence): 0 | Plant response rating, Corn (corn (Zea mays); Rate 125 g/ha, Postemergence): 3 | Corn plant response rating (corn (Zea mays); Rate 125 g/ha, Preemergence): 0 | Plant response rating, Corn (corn (Zea mays); Rate 250 g/ha, Postemergence): 4 | Plant response rating, Corn (corn (Zea mays); Rate 250 g/ha, Preemergence): 2 | Plant response rating, Rape (rape (Brassica napus); Rate 62 g/ha, Postemergence): 10 | Rape plant response rating (rape (Brassica napus); Rate 62 g/ha, Preemergence): 5 | Plant response rating, Rape (rape (Brassica napus); Rate 125 g/ha, Postemergence): 10 | Rape plant response rating (rape (Brassica napus); Rate 125 g/ha, Preemergence): 7 | Plant response rating, Rape (rape (Brassica napus); Rate 250 g/ha, Postemergence): 10 | Plant response rating, Rape (rape (Brassica napus); Rate 250 g/ha, Preemergence): 10 | Plant response rating, Giant foxtail ([4]; Rate 62 g/ha, Postemergence): 6 | Giant foxtail plant response rating ([4]; Rate 62 g/ha, Preemergence): 9 | Plant response rating, Giant foxtail ([4]; Rate 125 g/ha, Postemergence): 6 | Giant foxtail plant response rating ([4]; Rate 125 g/ha, Preemergence): 10 | Plant response rating, Giant foxtail ([4]; Rate 250 g/ha, Postemergence): 8 | Plant response rating, Giant foxtail ([4]; Rate 250 g/ha, Preemergence): 10 | Plant response rating, Velvetleaf ([5]; Rate 62 g/ha, Postemergence): 8 | Velvetleaf plant response rating ([5]; Rate 62 g/ha, Preemergence): 8 | Plant response rating, Velvetleaf ([5]; Rate 125 g/ha, Postemergence): 8 | Velvetleaf plant response rating ([5]; Rate 125 g/ha, Preemergence): 8 | Plant response rating, Velvetleaf ([5]; Rate 250 g/ha, Postemergence): 9 | Plant response rating, Velvetleaf ([5]; Rate 250 g/ha, Preemergence): 8 | Bedstraw plant response rating ([6]; Rate 62 g/ha, Preemergence): 6 | Plant response rating, Bedstraw ([6]; Rate 125 g/ha, Postemergence): 8 | Bedstraw plant response rating ([6]; Rate 125 g/ha, Preemergence): 7 | Plant response rating, Bedstraw ([6]; Rate 250 g/ha, Postemergence): 8 | Plant response rating, Bedstraw ([6]; Rate 250 g/ha, Preemergence): 7 | Plant response rating, Crabgrass ([7]; Rate 62 g/ha, Postemergence): 9 | Crabgrass plant response rating ([7]; Rate 62 g/ha, Preemergence): 7 | Plant response rating, Crabgrass ([7]; Rate 125 g/ha, Postemergence): 9 | Crabgrass plant response rating ([7]; Rate 125 g/ha, Preemergence): 10 | Plant response rating, Crabgrass ([7]; Rate 250 g/ha, Postemergence): 9 | Plant response rating, Crabgrass ([7]; Rate 250 g/ha, Preemergence): 10 | Plant response rating, Ducksalad [8, 11]: 3 | Plant response rating, Ducksalad [8, 12]: 4 | Plant response rating, Ducksalad [8, 13]: 6 | Plant response rating, Barnyardgrass [9, 11]: 4 | Plant response rating, Barnyardgrass [9, 12]: 5 | Plant response rating, Barnyardgrass [9, 13]: 6 | Plant response rating, Rice (rice (Oryza sativa); [11]): 3 | Plant response rating, Rice (rice (Oryza sativa); [12]): 4 | Plant response rating, Rice (rice (Oryza sativa); [13]): 5 | Plant response rating, S. Flatsedge [10, 11]: 3 | Plant response rating, S. Flatsedge [10, 12]: 8 | Plant response rating, S. Flatsedge [10, 13]: 9

Cc1cnc(-n2ccc(C(F)(F)F)n2)nc1Cc1cccc(OC(F)(F)F)c1 [Compound 42]
Plant response rating, Sugarbeets ([1]; Rate 62 g/ha, Postemergence): 10 | Sugarbeets plant response rating ([1]; Rate 62 g/ha, Preemergence): 10 | Sugarbeets plant response rating ([1]; Rate 125 g/ha, Postemergence): 10 | Plant response rating, Sugarbeets ([1]; Rate 125 g/ha, Preemergence): 10 | Plant response rating, Sugarbeets ([1]; Rate 250 g/ha, Postemergence): 10 | Plant response rating, Sugarbeets [1, 14]: 10 | Plant response rating, Nutsedge ([2]; Rate 62 g/ha, Postemergence): 0 | Nutsedge plant response rating ([2]; Rate 62 g/ha, Preemergence): 0 | Nutsedge plant response rating ([2]; Rate 125 g/ha, Postemergence): 0 | Plant response rating, Nutsedge ([2]; Rate 250 g/ha, Postemergence): 2 | Plant response rating, Nutsedge [2, 14]: 0 | Plant response rating, Soybean (soybean (Glycine max); Rate 62 g/ha, Postemergence): 9 | Soybean plant response rating (soybean (Glycine max); Rate 62 g/ha, Preemergence): 2 | Soybean plant response rating (soybean (Glycine max); Rate 125 g/ha, Postemergence): 9 | Plant response rating, Soybean (soybean (Glycine max); Rate 125 g/ha, Preemergence): 4 | Plant response rating, Soybean (soybean (Glycine max); Rate 250 g/ha, Postemergence): 9 | Plant response rating, Soybean (soybean (Glycine max); [14]): 4 | Wheat plant response rating ([3]; Rate 62 g/ha, Postemergence): 2 | Wheat plant response rating ([3]; Rate 62 g/ha, Preemergence): 1 | Wheat plant response rating ([3]; Rate 125 g/ha, Postemergence): 3 | Plant response rating, Wheat ([3]; Rate 125 g/ha, Preemergence): 2 | Plant response rating, Wheat ([3]; Rate 250 g/ha, Postemergence): 4 | Plant response rating, Wheat [3, 14]: 4 | Wild oats plant response rating (wild oat (Avena fatua); Rate 62 g/ha, Postemergence): 6 | Wild oats plant response rating (wild oat (Avena fatua); Rate 62 g/ha, Preemergence): 4 | Wild oats plant response rating (wild oat (Avena fatua); Rate 125 g/ha, Postemergence): 6 | Plant response rating, Wild oats (wild oat (Avena fatua); Rate 125 g/ha, Preemergence): 8 | Plant response rating, Wild oats (wild oat (Avena fatua); Rate 250 g/ha, Postemergence): 6 | Plant response rating, Wild oats (wild oat (Avena fatua); [14]): 9 | Plant response rating, Corn (corn (Zea mays); Rate 62 g/ha, Postemergence): 3 | Corn plant response rating (corn (Zea mays); Rate 62 g/ha, Preemergence): 0 | Plant response rating, Corn (corn (Zea mays); Rate 125 g/ha, Postemergence): 3 | Corn plant response rating (corn (Zea mays); Rate 125 g/ha, Preemergence): 1 | Plant response rating, Corn (corn (Zea mays); Rate 250 g/ha, Postemergence): 8 | Plant response rating, Corn (corn (Zea mays); [14]): 2 | Plant response rating, Rape (rape (Brassica napus); Rate 62 g/ha, Postemergence): 10 | Rape plant response rating (rape (Brassica napus); Rate 62 g/ha, Preemergence): 7 | Rape plant response rating (rape (Brassica napus); Rate 125 g/ha, Postemergence): 10 | Rape plant response rating (rape (Brassica napus); Rate 125 g/ha, Preemergence): 10 | Plant response rating, Rape (rape (Brassica napus); Rate 250 g/ha, Postemergence): 10 | Plant response rating, Rape (rape (Brassica napus); [14]): 10 | Plant response rating, Giant foxtail ([4]; Rate 62 g/ha, Postemergence): 6 | Giant foxtail plant response rating ([4]; Rate 62 g/ha, Preemergence): 10 | Giant foxtail plant response rating ([4]; Rate 125 g/ha, Postemergence): 7 | Giant foxtail plant response rating ([4]; Rate 125 g/ha, Preemergence): 10 | Plant response rating, Giant foxtail ([4]; Rate 250 g/ha, Postemergence): 9 | Plant response rating, Giant foxtail [4, 14]: 10 | Plant response rating, Velvetleaf ([5]; Rate 62 g/ha, Postemergence): 8 | Velvetleaf plant response rating ([5]; Rate 62 g/ha, Preemergence): 10 | Velvetleaf plant response rating ([5]; Rate 125 g/ha, Postemergence): 9 | Plant response rating, Velvetleaf ([5]; Rate 125 g/ha, Preemergence): 7 | Plant response rating, Velvetleaf ([5]; Rate 250 g/ha, Postemergence): 9 | Plant response rating, Velvetleaf [5, 14]: 10 | Plant response rating, Bedstraw ([6]; Rate 62 g/ha, Postemergence): 9 | Bedstraw plant response rating ([6]; Rate 62 g/ha, Preemergence): 7 | Plant response rating, Bedstraw ([6]; Rate 125 g/ha, Postemergence): 9 | Bedstraw plant response rating ([6]; Rate 125 g/ha, Preemergence): 8 | Plant response rating, Bedstraw [6, 14]: 8 | Plant response rating, Crabgrass ([7]; Rate 62 g/ha, Postemergence): 4 | Crabgrass plant response rating ([7]; Rate 62 g/ha, Preemergence): 9 | Plant response rating, Crabgrass ([7]; Rate 125 g/ha, Postemergence): 7 | Crabgrass plant response rating ([7]; Rate 125 g/ha, Preemergence): 10 | Plant response rating, Crabgrass ([7]; Rate 250 g/ha, Postemergence): 8 | Plant response rating, Crabgrass [7, 14]: 10 | Plant response rating, Ducksalad [8, 11]: 1 | Plant response rating, Ducksalad [8, 12]: 8 | Plant response rating, Ducksalad [8, 13]: 8 | Plant response rating, Barnyardgrass [9, 11]: 4 | Plant response rating, Barnyardgrass [9, 12]: 4 | Plant response rating, Barnyardgrass [9, 13]: 5 | Plant response rating, Rice (rice (Oryza sativa); [11]): 4 | Rice plant response rating (rice (Oryza sativa); [15]): 6 | Plant response rating, Rice (rice (Oryza sativa); [13]): 6 | Plant response rating, S. Flatsedge [10, 11]: 9 | S. Flatsedge plant response rating [10, 15]: 9 | Plant response rating, S. Flatsedge [10, 13]: 9

Source: patent US6525001B1, “Substituted pyrimidine and pyridine herbicides” (Mid-American Commercialization Corporation, priority 1997, dated 2003)
